# Experimental data taken from patent publication US10363299B2, “Compositions and methods for preventing and treating rhinovirus infections” (priority 2015, dated 2019).
# Where “and” joins values, the source holds several entries; their conditions need not be identical. Equal values may be shown once.
# How the values were obtained:
# Assay type in all cases: cell-based, human
# [1] = tested on: CD4+ T cells; assay: Tetramer-guided epitope mapping (TGEM): pMHCII tetramer staining of PBMC cultures stimulated with RV peptides; conditions: one value per subject
# Excerpt: (§1) Peptide libraries consisting of 20mers with a 12 amino acid overlap were generated to span the VP1, VP2 and VP4 protein sequences of RV-A16, and VP1 and VP2 protein sequences of RV-A39 (UniprotKB accession # Q82122, Q5XLP5). […] Biologically relevant pMHCII complexes were identified by tetramer-guided epitope mapping (TGEM). This involved 2 steps: First, PBMC cultures established from subjects with known HLA-DR types were stimulated with RV peptide pools derived from VP1, VP2, or VP4, and then stained with pMHCII tetramer pools composed of HLA-DR molecules corresponding to those expressed in the test subject; Second, positive signals were de-convoluted by repeating and staining with single-peptide tetramers. Tetramers that gave strong positive signals (˜1% of total CD4+ T cells) in the single peptide-tetramer screen in more than one subject, were then re-tested for their ability to detect RV-specific CD4+ T cells in non-stimulated PBMCs (denoted as ex vivo analysis) in multiple subjects.
# (§2) All experiments were performed in subjects expressing HLA-DR molecules corresponding to the selected tetramer. Precursor frequencies of circulating tetramer+ cells were then calculated by established methods. Tetramer+ cells were phenotyped for surface markers by staining PBMCs with PE-conjugated tetramers, labeling with anti-PE magnetic beads, enriching with an AutoMACS separator (Miltenyi Biotec, Auburn, Calif., USA), and then counterstaining for surface markers. A tetramer displaying an irrelevant peptide, GAD555-567, was used as a staining control. For simplicity, identified RV-A16 peptide epitopes were given a numerical designation.
# [2] = tested on: RV-specific CD4+ T cells; assay: Direct ex vivo pMHCII tetramer staining of non-stimulated PBMCs; design: key to Validated: Y means validated; conditions: for Ex Vivo Frequency (# per 10^6 CD4): directly ex vivo, without culture, one value per subject
# Excerpt: as §1, §2
# [3] = tested on: RV-specific CD4+ T cells; assay: Assay to assess T-cell cross-reactivity (14-day peptide stimulation of PBMCs, tetramer and cytokine staining); conditions: PBMCs from HLA-DR*0401+ subjects stimulated 14 days
# Description: RV-specific CD4+ T cells were expanded in vitro using established methods. Briefly, PBMCs from HLA-DRB 1*0401+ subjects were stimulated with RV-A39 VP2169-188, or else unstimulated, for 14 days. Supplemental IL-2 (10 U/ml) was given days 7-14. Cells were then stained with RV tetramers and re-stimulated with PMA and ionomycin in the presence of Brefeldin A before staining for intracellular cytokines. Cells were analyzed on a BD LSR Fortessa (UVA Flow Cytometry Core Facility) and data analysis was performed using FlowJo version 9.3.3 (Tree Star Inc., Ashland, Oreg.). Analysis and presentation of distributions was performed using SPICE version 5.3, downloaded from a National Institutes of Health website.
# [4] = HLA allele 1*0101 tetramer, tetramer-positive CD4+ T cells in peptide-stimulated PBMC cultures
# [5] = HLA allele DRB5 tetramer, peptide-stimulated PBMC cultures
# [6] = HLA allele 1*0101 tetramer, reliable ex vivo signal (tetramer+ cells ≥2 per million CD4+ T cells in ≥3 subjects)
# [7] = HLA allele 1*0701 tetramer, peptide-stimulated PBMC cultures
# [8] = HLA allele 1*1501 tetramer, peptide-stimulated PBMC cultures
# [9] = HLA allele 1*0701 tetramer, reliable ex vivo signal
# [10] = HLA allele 1*1101 tetramer, peptide-stimulated PBMC cultures
# [11] = HLA allele 1*0401 tetramer, peptide-stimulated PBMC cultures
# [12] = HLA allele DRB5 tetramer, reliable ex vivo signal
# [13] = HLA allele 1*0404 tetramer, peptide-stimulated PBMC cultures
sequence,measurement,setting,value
PHQFINLRSNNSATLIVPYV [VP2P24],In Vitro Frequency (% CD4),[1]; [4],2.82 % CD4 and 3.17 % CD4 and 11.3 % CD4
same,In Vitro Frequency (% CD4),[1]; [5],0 % CD4 (2×) and 0.67 % CD4
same,Ex Vivo Frequency (# per 10^6 CD4),[2]; HLA allele 1*0101 tetramer,17 # per 10^6 CD4 and 148 # per 10^6 CD4 and 26 # per 10^6 CD4
same,Validated,[2]; [6],Y
PRFSLPFLSIASAYYMFYDG [VP1P23],In Vitro Frequency (% CD4),[1]; [4],8.37 % CD4 and 0.35 % CD4 and 2.37 % CD4
same,In Vitro Frequency (% CD4),[1]; [7],1.84 % CD4 and 0.74 % CD4
same,In Vitro Frequency (% CD4),[1]; [8],0.28 % CD4 and 0.78 % CD4 and 0 % CD4
same,In Vitro Frequency (% CD4),[1]; [5],2.03 % CD4 and 2.90 % CD4
same,Ex Vivo Frequency (# per 10^6 CD4),[2]; HLA allele 1*0101 tetramer,3 # per 10^6 CD4 and 8 # per 10^6 CD4 and 13 # per 10^6 CD4 and 2 # per 10^6 CD4
same,Validated,[2]; [6],Y
same,Ex Vivo Frequency (# per 10^6 CD4),[2]; HLA allele 1*0701 tetramer,3 # per 10^6 CD4 and 8 # per 10^6 CD4 and 13 # per 10^6 CD4 and 2 # per 10^6 CD4
same,Validated,[2]; [9],Y
same,Ex Vivo Frequency (# per 10^6 CD4),[2]; HLA allele DRB5 tetramer,11 # per 10^6 CD4
PSVEACGYSDRIIQITRGDS [VP2P1],In Vitro Frequency (% CD4),[1]; [10],1.59 % CD4 and 1.16 % CD4 and 0.66 % CD4
QIRRKFEMFTYARFDSEITM [VP1P14],In Vitro Frequency (% CD4),[1]; [11],0.59 % CD4 and 0.96 % CD4
same,Ex Vivo Frequency (# per 10^6 CD4),[2]; HLA allele 1*0401 tetramer,4 # per 10^6 CD4
QSGTNASVFWQHGQPFPRFS [VP1P21],In Vitro Frequency (% CD4),[1]; [5],3.91 % CD4 and 0.95 % CD4
same,Ex Vivo Frequency (# per 10^6 CD4),[2]; HLA allele DRB5 tetramer,11 # per 10^6 CD4 and 28 # per 10^6 CD4 and 20 # per 10^6 CD4
same,Validated,[2]; [12],Y
RGDSTITSQDVANAVVGYGV [VP2P3],In Vitro Frequency (% CD4),[1]; [13],6.86 % CD4 and 1.61 % CD4
same,Ex Vivo Frequency (# per 10^6 CD4),[2]; HLA allele 1*0404 tetramer,36 # per 10^6 CD4 and 1 # per 10^6 CD4 and 38 # per 10^6 CD4 and 5 # per 10^6 CD4
same,Validated,"[2]; HLA allele 1*0404 tetramer, reliable ex vivo signal",Y
RPPRAVQYSHTHTTNYKLSS [VP1P32],In Vitro Frequency (% CD4),[1]; [7],0.53 % CD4 and 0 % CD4
SDDNWLNFDGTLLGNLLIFP [RV-A39 VP2169-188],cytokine profile of expanded RV-specific T cells,[3]; PMA/ionomycin re-stimulation,"a major IFN-γ+IL-4neg population, and minor populations expressing IL-17A and IL-21"
same,expansion of tetramer-positive RV-specific CD4+ T cells after peptide stimulation,[3]; RV-A16 and RV-A39 VP2 tetramers,induced expansion of both RV-A16- and RV-A39-specific T-cells
SDRIIQITRGDSTITSQDVA [VP2P2],In Vitro Frequency (% CD4),[1]; [10],2.18 % CD4 and 1.22 % CD4 and 2.28 % CD4
same,Ex Vivo Frequency (# per 10^6 CD4),[2]; HLA allele 1*1101 tetramer,8 # per 10^6 CD4 and 11 # per 10^6 CD4 and 15 # per 10^6 CD4
same,Validated,"[2]; HLA allele 1*1101 tetramer, reliable ex vivo signal",Y
SIASAYYMFYDGYDGDTYKS [VP1P24],In Vitro Frequency (% CD4),[1]; [8],0.31 % CD4 and 0 % CD4 (2×)
SNNSATLIVPYVNAVPMDSM [VP2P25],In Vitro Frequency (% CD4),[1]; [11],0 % CD4 and 0.46 % CD4
same,In Vitro Frequency (% CD4),[1]; [8],2.26 % CD4 and 9.02 % CD4
same,Ex Vivo Frequency (# per 10^6 CD4),[2]; HLA allele 1*1501 tetramer,31 # per 10^6 CD4 and 5 # per 10^6 CD4 and 13 # per 10^6 CD4 and 71 # per 10^6 CD4
same,Validated,"[2]; HLA allele 1*1501 tetramer, reliable ex vivo signal",Y
TSKGWWWKLPDALKDMGIFG [VP2P10],In Vitro Frequency (% CD4),[1]; [5],3.93 % CD4 and 4.49 % CD4 and 0.38 % CD4
same,Ex Vivo Frequency (# per 10^6 CD4),[2]; HLA allele DRB5 tetramer,60 # per 10^6 CD4 and 24 # per 10^6 CD4 and 136 # per 10^6 CD4
same,Validated,[2]; [12],Y
TSSNRFYTLDSKMWNSTSKG [VP2P8],In Vitro Frequency (% CD4),[1]; [13],0.77 % CD4 and 1.82 % CD4
same,In Vitro Frequency (% CD4),[1]; [10],0 % CD4 (2×) and 0.26 % CD4
same,Ex Vivo Frequency (# per 10^6 CD4),[2]; HLA allele 1*0404 tetramer,2 # per 10^6 CD4
TTRNDYAWQSGTNASVFWQH [VP1P20],In Vitro Frequency (% CD4),[1]; [4],18.7 % CD4 and 0 % CD4 (2×)
VPYVNAVPMDSMVRHNNWSL [VP2P26],In Vitro Frequency (% CD4),[1]; [7],1.57 % CD4 and 0.84 % CD4
same,Ex Vivo Frequency (# per 10^6 CD4),[2]; HLA allele 1*0701 tetramer,4 # per 10^6 CD4 and 16 # per 10^6 CD4 and 14 # per 10^6 CD4 and 5 # per 10^6 CD4
same,Validated,[2]; [9],Y
VVTNDMGTLCSRIVTSEQLH [VP1P27],In Vitro Frequency (% CD4),[1]; [7],0 % CD4 and 0.13 % CD4
